# Laboratory results from US6683103B2, “Sulfonamides for treatment of endothelin-mediated disorders” (Texas Biotechnology Corporation, priority 1997, dated 2004).
# Where two headings read alike, the source gives them in different places.
# Legend:
# human ETB receptor = target: T1, human ETB receptor (Homo sapiens, UniProt P24530); assay: Binding Test #2: inhibition of 125I-ET-1 binding to ETB receptors (transfected COS7 cell membranes)
# T1 construct: expressed in transfected cells; host or cells: COS7 cells
# T1 sequence (P24530 27-442): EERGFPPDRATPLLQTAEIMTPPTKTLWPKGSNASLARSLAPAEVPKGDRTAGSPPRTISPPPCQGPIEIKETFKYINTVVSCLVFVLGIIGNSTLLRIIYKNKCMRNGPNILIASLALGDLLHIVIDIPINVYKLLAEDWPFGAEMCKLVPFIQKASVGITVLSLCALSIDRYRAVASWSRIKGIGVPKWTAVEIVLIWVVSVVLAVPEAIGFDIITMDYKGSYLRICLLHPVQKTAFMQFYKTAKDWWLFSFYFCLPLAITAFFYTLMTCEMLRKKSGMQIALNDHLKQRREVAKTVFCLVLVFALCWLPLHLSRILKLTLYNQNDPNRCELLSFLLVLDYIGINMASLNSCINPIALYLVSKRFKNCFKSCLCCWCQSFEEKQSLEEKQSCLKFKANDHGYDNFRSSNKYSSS
# Text: (§1) Compounds that are potential endothelin antagonists are identified by testing their ability to compete with ^125I-labeled ET-1 for binding to human ETA receptors or ETB receptors present on isolated cell membranes. The effectiveness of the test compound as an antagonist or agonist of the biological tissue response of endothelin can also be assessed by measuring the effect on endothelin induced contraction of isolated rat thoracic aortic rings. The ability of the compounds to act as antagonists or agonists for ETB receptors can be assess by testing the ability of the compounds are to inhibit endothelin-1 induced prostacyclin release from cultured bovine aortic endothelial cells.
# B. Endothelin Binding Inhibition—Binding Test #2: Inhibition of Binding to ETB Receptors
# COS7 cells were transfected with DNA encoding the ETB receptor, The resulting cells, which express the human ETB receptor, were grown to confluence in T-150 flasks. Membrane was prepared as described above. The binding assay was performed as described above using the membrane preparation diluted with binding buffer to a concentration of 1 μg/50 μl.
# Briefly, the COS7 cells, described above, that had been transfected with DNA encoding the ETB receptor and express the human ETB receptor on their surfaces were grown to confluence in T-1 75 flasks. Cells from multiple flasks were collected by scraping, pooled and centrifuged for 10 min at 190×g. The cells were resuspended in phosphate buffered saline (PBS) containing 10 mM EDTA using a Tenbroeck homogenizer. The suspension was centrifuged at 4° C. 57,800 X g for 15 min, the pellet was resuspended in 5 ml of buffer A (5mM HEPES buffer, pH 7.4 containing aprotinin (100 KIU/ml)) and then frozen and thawed once. Five ml of Buffer B (5 mM HEPES Buffer, pH 7.4 containing 10 mM MnCl2 and 0.001% deoxyribonuclease Type 1) was added, the suspension mixed by inversion and then incubated at 37° C. for 30 minutes. The mixture was centrifuged at 57,800×g as described above, the pellet washed twice with buffer A and then resuspended in buffer C (30 mM HEPES buffer, pH 7.4 containing aprotinin (100 KIU/ml) to give a final protein concentration of 2 mg/ml.
# The binding assay was performed as described above using the membrane preparation diluted to give 1 μg/50 μl of binding buffer.
# human ETA receptors = target: T2, human ETA receptors (Homo sapiens, UniProt P25101); assay: Binding Test #1: inhibition of 125I-ET-1 binding to ETA receptors (TE 671 cell membranes); conditions: read-out: ETA
# T2 construct: endogenous in cells; host or cells: TE 671 cells (ATCC HTB 139)
# T2 sequence (P25101 21-427): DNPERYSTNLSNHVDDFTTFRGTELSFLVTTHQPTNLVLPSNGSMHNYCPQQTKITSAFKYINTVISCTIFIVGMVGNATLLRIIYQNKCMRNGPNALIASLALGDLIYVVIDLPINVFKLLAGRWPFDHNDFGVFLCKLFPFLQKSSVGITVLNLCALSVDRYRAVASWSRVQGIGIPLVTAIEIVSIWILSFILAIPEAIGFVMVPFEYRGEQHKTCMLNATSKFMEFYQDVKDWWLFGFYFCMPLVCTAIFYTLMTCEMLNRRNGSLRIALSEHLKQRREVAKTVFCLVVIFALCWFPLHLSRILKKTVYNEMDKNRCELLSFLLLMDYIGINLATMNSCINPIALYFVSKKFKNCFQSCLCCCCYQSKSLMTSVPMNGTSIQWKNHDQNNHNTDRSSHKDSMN
# Text: as §1
# A. Endothelin Binding Inhibition—Binding Test #1: Inhibition of Binding to ETA Receptors
# TE 671 cells (ATCC Accession No. HTB 139) express ETA receptors. These cells were grown to confluence in T-175 flasks. Cells from multiple flasks were collected by scraping, pooled and centrifuged for 10 min at 190×g. The cells were resuspended in phosphate buffered saline (PBS) containing 10 mM EDTA using a Tenbroeck homogenizer. The suspension was centrifuged at 4° C. at 57,800×g for 15 min, the pellet was resuspended in 5 ml of buffer A (5 mM HEPES buffer, pH 7.4 containing aprotinin (100 KIU/ml)) and then frozen and thawed once. 5 ml of Buffer B (5 mM HEPES Buffer, pH 7.4 containing 10 mM MnCl2 and 0.001% deoxyribonuclease Type 1) was added, the suspension mixed by inversion and then incubated at 37° C. for 30 minutes. The mixture was centrifuged at 57,800×g as described above, the pellet washed twice with buffer A and then resuspended in buffer C (30 mM HEPES buffer, pH 7.4 containing aprotinin (100 KIU/ml) to give a final protein concentration of 2 mg/ml and stored at −70° C. until use.
# The membrane suspension was diluted with binding buffer (30 mM HEPES buffer, pH 7.4 containing 150 mM NaCl, 5mM MgCl2, 0.5% Bacitracin) to a concentration of 8 μg/50 μl. ^125I-endothelin-1 (3,000 cpm, […]) was added to 50 μL of either: (A) endothelin-1 (for non specific binding) to give a final concentration 80 nM); (B) binding buffer (for total binding); or (C) a test compound (final concentration 1 nM to 100 μM). The membrane suspension (50 μL), containing up to 8 μg of membrane protein, was added to each of (A), (B), or (C). Mixtures were shaken, and incubated at 4° C. for 16-18 hours, and then centrifuged at […] for 25 min at 2,500×g. Alternatively, the incubation was conducted at 24° C. […] This, must be kept in mind when comparing IC50 concentrations among compounds provided herein.
# The supernatant, containing unbound radioactivity, was decanted and the pellet counted on a Genesys multiwell gamma counter. The degree of inhibition of binding (D) was calculated according to the following equation: [formula]
# Each test was generally performed in triplicate.
# [1] = Table 1, incubation at 4° C., read-out: ETB
# [2] = Table 1, † incubation at 24° C., read-out: ETB
# [3] = Table 1, † incubation at 24° C.
# [4] = Table 2, incubation at 4° C., read-out: ETB
Compound,IC50 (human ETB receptor; [1]) [nM],"IC50 (human ETA receptors; Table 1, incubation at 4° C.) [nM]",further results
Cc1noc(NS(=O)(=O)c2ccsc2C(=O)Nc2ccccc2)c1Br [N-(4-bromo-3-methyl-5-isoxazolyl)-2-(N-phenylaminocarbonyl)thiophene-3-sulfonamide],18800,5.4,–
COC(=O)c1sccc1S(=O)(=O)Nc1onc(C)c1Br [N-(4-bromo-3-methyl-5-isoxazolyl)-2-(carbomethoxy)thiophene-3-sulfonamide],98100,20.8,–
"Cc1noc(NS(=O)(=O)c2ccc(-c3ccccc3)cc2)c1C [N-(3,4-dimethyl-5-isoxazolyl)-4-biphenylsufonamide]",–,–,"IC50 (human ETB receptor; [4]): 770 ± 320 nM; IC50 (human ETB receptor; Table 2, † incubation at 24° C., read-out: ETB): 150 nM; IC50 (human ETA receptors; Table 2, incubation at 4° C.): 9900 ± 1400 nM; IC50 (human ETA receptors; Table 2, † incubation at 24° C.): 6300 nM"
Cc1ccsc1S(=O)(=O)Nc1onc(C)c1Br [N-(4-bromo-3-methyl-5-isoxazolyl)-3-methylthiophene-2-sulfonamide],7150,651,–
CCCc1ccc(-c2csc(S(=O)(=O)Nc3onc(C)c3Br)c2)cc1 [N-(4-bromo-3-methyl-5-isoxazolyl)-4-(4-propylphenyl)thiophene-2-sulfonamide],–,–,IC50 (human ETB receptor; [2]): 435 nM; IC50 (human ETA receptors; [3]): 962 nM
"N-(3,4-dimethyl-5-isoxazolyl)-2-(4-tolylacetylphenyl)thiophene-3-sulfonamide",–,–,IC50 (human ETB receptor; [2]): 29200 nM; IC50 (human ETA receptors; [3]): 2.7 nM
"Cc1noc(NS(=O)(=O)c2ccsc2C(=O)Nc2ccccc2)c1C [N-(3,4-dimethyl-5-isoxazolyl)-2-(N-phenylaminocarbonyl)thiophene-3-sulfonamide]",~170000,18.2,–
Cc1noc(NS(=O)(=O)c2cccn2-c2ccc(-c3ccccc3)cc2)c1Br [(4-bromo-3-methyl-5-isoxazolyl)-1-(4′-biphenyl)pyrrole-2-sulfonamide],7840,9170,–
"Cc1noc(NS(=O)(=O)c2ccsc2C(=O)c2ccc3c(c2)OCO3)c1Br [N-(4-bromo-3-methyl-5-isoxazolyl)-2-[(3,4-methylenedioxy)benzoyl]thiophene-3-sulfonamide]",–,–,IC50 (human ETB receptor; [2]): 15000 nM; IC50 (human ETA receptors; [3]): 2000 nM
"Cc1noc(NS(=O)(=O)c2cc3ccccc3o2)c1C [N-(3,4-dimethyl-5-isoxazolyl)benzofuran-2-sulfonamide]",38400,5220,–
Cc1noc(NS(=O)(=O)c2ccsc2C(=O)NCc2ccccc2)c1Br [N-(4-Bromo-3-methyl-5-isoxazolyl)-2-(N-benzylaminocarbonyl)thiophene-3-sulfonamide],12700,13,–
Cc1noc(NS(=O)(=O)c2cccc(-c3ccccc3)c2)c1Br [N-(4-bromo-3-methyl-5-isoxazolyl)-3-biphenylsulfonamide],–,–,"IC50 (human ETB receptor; [4]): 760 nM; IC50 (human ETB receptor; read-out: IC50 for ETB receptors): ~760 nM; IC50 (human ETA receptors; Table 2, incubation at 4° C.): ~30 nM"
"Cc1onc(NS(=O)(=O)c2c(Cc3ccc4c(c3)OCO4)sc3ccccc23)c1Cl [N-(4-chloro-5-methyl-3-isoxazolyl)-2-[3,4-(methylenedioxy)benzyl]benzo[b]thiophene-3-sulfonamide]",–,–,IC50 (human ETB receptor; [2]): 364 nM; IC50 (human ETA receptors; [3]): 5.5 nM
Cc1noc(NS(=O)(=O)c2ccc(-c3ccccn3)s2)c1Br [N-(4-Bromo-3-methyl-5-isoxazolyl)-5-(2-pyridyl)thiophene-2-sulfonamide],2700,3840,–
Cc1noc(NS(=O)(=O)c2cccn2-c2ccccc2)c1Br [N-(4-Bromo-3-methyl-5-isoxazolyl)-1-(phenyl)pyrrole-2-sulfonamide],8700,18100,–
Cc1onc(NS(=O)(=O)c2cccs2)c1Br [N-(4-bromo-5-methyl-3-isoxazolyl)thiophene-2-sulfonamide],27300,211,–

# The remaining compounds from weak to strong by IC50 (human ETB receptor; [1]), led by results:
IC50 (human ETB receptor; [1]) [nM],"IC50 (human ETA receptors; Table 1, incubation at 4° C.) [nM]",Compound,further results
2260,314,Cc1noc(NS(=O)(=O)c2ccc(Br)s2)c1Br [N-(4-bromo-3-methyl-5-isoxazolyl)-5-bromothiophene-2-sulfonamide],–
2120,2,COc1ccc(NC(=O)c2sccc2S(=O)(=O)Nc2onc(C)c2Br)cc1 [N-(4-Bromo-3-methyl-5-isoxazolyl)-2-[N-(4-methoxyphenyl)aminocarbonyl]thiophene-3-sulfonamide],–
1630,960,Cc1noc(NS(=O)(=O)c2sc3ccc(Cl)cc3c2C)c1Br [N-(4-Bromo-3-methyl-5-isoxazolyl)-5-chloro-3-methylbenzo[b]thiophene-2-sulfonamide],–
1100,381,COc1ccccc1-c1ccc(S(=O)(=O)Nc2onc(C)c2Br)s1 [N-(4-bromo-3-methyl-5-isoxazolyl)-5-(2-methoxyphenyl)thiophene-2-sulfonamide],–
776,3260,COc1cccc(-c2ccc(S(=O)(=O)Nc3onc(C)c3Br)s2)c1 [N-(4-bromo-3-methyl-5-isoxazolyl)-5-(3-methoxyphenyl)thiophene-2-sulfonamide],IC50 (human ETB receptor; [2]): 4700 nM; IC50 (human ETA receptors; [3]): 23400 nM
380,4490,Cc1noc(NS(=O)(=O)c2ccc(-c3ccsc3)s2)c1Br [N-(4-bromo-3-methyl-5-isoxazolyl)-5-(3-thienyl)thiophene-2-sulfonamide],–
211,838,Cc1noc(NS(=O)(=O)c2ccn(-c3ccc(C(C)C)cc3)c2)c1Br [N-(4-Bromo-3-methyl-5-isoxazolyl) 1-(4′-isopropylphenyl)pyrrole-3-sulfonamide],–
166,11400,Cc1noc(NS(=O)(=O)c2cccn2-c2ccc(C(C)C)cc2)c1Br [N-(4-Bromo-3-methyl-5-isoxazolyl)-1-(4′-isopropylphenyl)pyrrole-2-sulfonamide],–
